Results taken from publication PMC12892976, “Alkylation-based optimization of antifungal FPPS inhibitors yields a potent, broad-spectrum lipophilic zoledronate derivative” (mBio, 2025).
Values after ≈ are worked out from the molar mass of the structure shown. Where two headings read alike, the source gives them in different places.

Tests used:
Candida glabrata [1] = assay: checkerboard drug interaction (FICI, MICc);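 as to all read-outs here: simplified diagonal checkerboard screen pairing antifungals with FPPS inhibitors, FICI calculated under the Loewe additivity model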; assay type: cell-based; conditions: C. glabrata; for INH FD (MIC-MICc fold decrease): fold decrease of inhibitor MIC
Protocol: (§1) Drug interactions between antifungals and FPPS inhibitors were investigated using a simplified checkerboard diagonal screening method ([45]). […] FICIs were determined according to the Loewe additivity model ([17]).

Aspergillus fumigatus [2] = assay: MIC/MFC broth microdilution (CLSI); conditions: ATCC204305
Protocol: (§2) Antifungal susceptibility was determined by broth microdilution according to the CLSI guidelines described in M27-Ed4 ([16]). […] MFC was determined by back-plating drug-treated cultures from MIC broths onto SDA plates. The MFC was defined as the lowest concentration from which no colonies could be cultured.

eight fungal species [3] = assay: checkerboard interaction with azoles, summary across the eight species; assay type: cell-based; conditions: geometric mean MIC in combination with azoles
From the text: Synergy between lipophilic FPPS inhibitors and azole antifungals was investigated by determining the fractional inhibitory concentration index (FICI) (Fig. 2; Table S1 Fig. S1) ([17]). […]. Derivatives PLA9 and 11, and PDA9, 11, and 12 antagonized azoles in C. albicans, C. neoformans, and C. deuterogattii, yet were largely synergistic in C. glabrata and S. cerevisiae. […].

Candida albicans [4] = assay: MIC/MFC broth microdilution (CLSI); assay type: cell-based; conditions: Candida albicans SC5314
Protocol: as §2

Cryptococcus neoformans [5] = assay: checkerboard drug interaction (FICI, MICc);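 as to all read-outs here: antifungal plus FPPS inhibitor pairs tested against Cryptococcus neoformans by simplified diagonal checkerboard screening, FICI computed under the Loewe additivity model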; assay type: cell-based; conditions: C. neoformans; for INH FD (MIC-MICc fold decrease): fold decrease of inhibitor MIC
Protocol: as §1

[6] = system: Cryptococcus deuterogattii; assay: MIC/MFC broth microdilution (CLSI); conditions: Cryptococcus deuterogattii;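 also: broth microdilution per CLSI M27-Ed4. MFC is the lowest concentration yielding no colonies when MIC broths are subcultured onto SDA plates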
Protocol: as §2

Candida glabrata [7] = assay: MIC/MFC broth microdilution (CLSI); conditions: Nakaseomyces glabratus, CBS138;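 also: broth microdilution following CLSI M27-Ed4, MFC taken as the lowest drug level yielding no growth once MIC wells were subcultured on SDA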
Protocol: as §2

Saccharomyces cerevisiae [8] = assay: MIC/MFC broth microdilution (CLSI); assay type: cell-based; conditions: Saccharomyces cerevisiae S288c
Protocol: as §2

HEK-293T cells = assay: MTT reduction cytotoxicity assay; assay type: cell-based; conditions: Homo sapiens, HEK-293T, 72 h, MTT, 72 h
Cryptococcus neoformans [9] = assay: MIC/MFC broth microdilution (CLSI); conditions: Cryptococcus neoformans;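 also: susceptibility testing followed the CLSI M27-Ed4 broth microdilution document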
Protocol: as §2

Saccharomyces cerevisiae [10] = assay: checkerboard drug interaction (FICI, MICc); assay type: cell-based; design: INH MICc / INH MICc (ITR:INH) / INH MICc (KET:INH) / INH MICc (FLC:INH): unit not given beside the values;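 also: simplified diagonal checkerboard screen pairing antifungals with FPPS inhibitors, FICI calculated under the Loewe additivity model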
[11] = system: Cryptococcus deuterogattii; assay: checkerboard drug interaction (FICI, MICc);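 as to all read-outs here: simplified diagonal checkerboard screen pairing antifungal drugs with FPPS inhibitors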; assay type: cell-based; conditions: C. deuterogattii; for INH FD (MIC-MICc fold decrease): fold decrease of inhibitor MIC
Protocol: as §1

Aspergillus flavus [12] = assay: MIC/MFC broth microdilution (CLSI); conditions: ATCC204304
Protocol: as §2

Candida albicans [13] = assay: checkerboard drug interaction (FICI, MICc);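 as to all read-outs here: antifungal plus FPPS inhibitor combinations on Candida albicans tested by a simplified diagonal checkerboard screen, with FICI calculated under the Loewe additivity model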; assay type: cell-based; conditions: C. albicans; for INH FD (MIC-MICc fold decrease): fold decrease of inhibitor MIC
Protocol: as §1

Trichophyton rubrum [14] = assay: MIC/MFC broth microdilution (CLSI); conditions: Trichophyton rubrum
Protocol: as §2

eight fungal species [15] = assay: MIC/MFC summary across the eight fungal species of Table 1; assay type: cell-based
Protocol: The antifungal activity of these compounds was evaluated according to CLSI guidelines ([16]).

Aspergillus fumigatus [16] = assay: checkerboard drug interaction (FICI, MICc); assay type: cell-based;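 also: simplified diagonal checkerboard screen pairing antifungals with FPPS inhibitors against Aspergillus fumigatus, with FICI calculated under the Loewe additivity model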
Protocol: as §1

Trichophyton rubrum [17] = assay: checkerboard drug interaction (FICI, MICc);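 also: simplified diagonal checkerboard screen pairing azole antifungals with FPPS inhibitors, FICI calculated under the Loewe additivity model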; assay type: cell-based; conditions: T. rubrum
Protocol: as §1

Aspergillus flavus [18] = assay: checkerboard drug interaction (FICI, MICc);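 also: simplified diagonal checkerboard screen pairing azole antifungals with FPPS inhibitors, FICI calculated under the Loewe additivity model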; assay type: cell-based; design: INH MICc (KET:INH) / INH MICc (FLC:INH): unit not given beside the values; conditions: A. flavus
[19] = FLC:INH combination, MIC of the inhibitor in combination with FLC
[20] = FLC:INH combination, fold decrease of FLC MIC
[21] = ITR:INH combination, MIC of the inhibitor in combination with ITR
[22] = ITR:INH combination, fold decrease of ITR MIC
[23] = KET:INH combination, MIC of the inhibitor in combination with KET
[24] = KET:INH combination, fold decrease of KET MIC
[25] = Fractional Inhibitory Concentration Index, fluconazole + inhibitor
[26] = Fractional Inhibitory Concentration Index, itraconazole + inhibitor
[27] = Fractional Inhibitory Concentration Index, ketoconazole + inhibitor
[28] = MIC of the inhibitor in combination with fluconazole
[29] = MIC of the inhibitor in combination with itraconazole
[30] = MIC of the inhibitor in combination with ketoconazole
[31] = MIC-MICc fold decrease of fluconazole, negative = increase
[32] = MIC-MICc fold decrease of itraconazole, negative = increase
[33] = MIC-MICc fold decrease of ketoconazole, negative = increase
[34] = MIC-MICc fold decrease of the inhibitor, with fluconazole
[35] = MIC-MICc fold decrease of the inhibitor, with itraconazole
[36] = MIC-MICc fold decrease of the inhibitor, with ketoconazole

CCCCCCCCCCCCN1CCC[C@H]1C(=O)N[C@H](CC(=O)OC)C(=O)OC [dmPDA12]
FICI (Candida glabrata [1]; FLC:INH combination): 2.5 | INH MICc (Candida glabrata [1]; [19]): 8 | FLC FD (MIC-MICc fold decrease) (Candida glabrata [1]; [20]): 2 | INH FD (MIC-MICc fold decrease) (Candida glabrata [1]; FLC:INH combination): 1 | FICI (Candida glabrata [1]; ITR:INH combination): 1.5 | INH MICc (Candida glabrata [1]; [21]): 4 | ITR FD (MIC-MICc fold decrease) (Candida glabrata [1]; [22]): 2 | INH FD (MIC-MICc fold decrease) (Candida glabrata [1]; ITR:INH combination): 2 | FICI (Candida glabrata [1]; KET:INH combination): 0.38 | INH MICc (Candida glabrata [1]; [23]): 1 | KET FD (MIC-MICc fold decrease) (Candida glabrata [1]; [24]): 8 | INH FD (MIC-MICc fold decrease) (Candida glabrata [1]; KET:INH combination): 8 | MFC (Aspergillus fumigatus [2]): > 128 mg/L | MIC (Aspergillus fumigatus [2]): 128 mg/L (≈ 300 µM) | GM fungal MICc (eight fungal species [3]): 12 | MFC (Candida albicans [4]): > 128 mg/L | MIC (Candida albicans [4]): > 128 mg/L | FICI (Cryptococcus neoformans [5]; FLC:INH combination): 1.25 | INH MICc (Cryptococcus neoformans [5]; [19]): 8 | FLC FD (MIC-MICc fold decrease) (Cryptococcus neoformans [5]; [20]): 4 | INH FD (MIC-MICc fold decrease) (Cryptococcus neoformans [5]; FLC:INH combination): 1 | FICI (Cryptococcus neoformans [5]; ITR:INH combination): 1.25 | INH MICc (Cryptococcus neoformans [5]; [21]): 8 | ITR FD (MIC-MICc fold decrease) (Cryptococcus neoformans [5]; [22]): 4 | INH FD (MIC-MICc fold decrease) (Cryptococcus neoformans [5]; ITR:INH combination): 1 | FICI (Cryptococcus neoformans [5]; KET:INH combination): 1.25 | INH MICc (Cryptococcus neoformans [5]; [23]): 8 | KET FD (MIC-MICc fold decrease) (Cryptococcus neoformans [5]; [24]): 4 | INH FD (MIC-MICc fold decrease) (Cryptococcus neoformans [5]; KET:INH combination): 1 | MFC [6]: 32 mg/L (≈ 75 µM) | MIC [6]: 8 mg/L (≈ 18.8 µM) | MFC (Candida glabrata [7]): 128 mg/L (≈ 300 µM) | MIC (Candida glabrata [7]): 128 mg/L (≈ 300 µM) | MFC (Saccharomyces cerevisiae [8]): > 128 mg/L | MIC (Saccharomyces cerevisiae [8]): 64 mg/L (≈ 150 µM) | IC50 (HEK-293T cells; HEK-293T cells, read-out: IC50): 0.161 mg/L (≈ 0.377 µM) | IC50 (HEK-293T cells; read-out: HEK IC50): 0.161 mg/L (≈ 0.377 µM) | MFC (Cryptococcus neoformans [9]): 32 mg/L (≈ 75 µM) | MIC (Cryptococcus neoformans [9]): 8 mg/L (≈ 18.8 µM) | FICI (FLC:INH) (Saccharomyces cerevisiae [10]; [25]): 0.75 | FICI (ITR:INH) (Saccharomyces cerevisiae [10]; [26]): 1.06 | FICI (KET:INH) (Saccharomyces cerevisiae [10]; [27]): 0.56 | INH MICc (FLC:INH) (Saccharomyces cerevisiae [10]; [28]): 32 | INH MICc (ITR:INH) (Saccharomyces cerevisiae [10]; [29]): 4 | INH MICc (KET:INH) (Saccharomyces cerevisiae [10]; [30]): 32 | FLC FD (FLC:INH) (Saccharomyces cerevisiae [10]; [31]): 4 | ITR FD (ITR:INH) (Saccharomyces cerevisiae [10]; [32]): 1 | KET FD (KET:INH) (Saccharomyces cerevisiae [10]; [33]): 16 | INH FD (FLC:INH) (Saccharomyces cerevisiae [10]; [34]): 2 | INH FD (ITR:INH) (Saccharomyces cerevisiae [10]; [35]): 16 | INH FD (KET:INH) (Saccharomyces cerevisiae [10]; [36]): 2 | FICI ([11]; FLC:INH combination): 2 | INH MICc [11, 19]: 64 | FLC FD (MIC-MICc fold decrease) [11, 20]: 1 | INH FD (MIC-MICc fold decrease) ([11]; FLC:INH combination): 1 | FICI ([11]; ITR:INH combination): 0.38 | INH MICc [11, 21]: 8 | ITR FD (MIC-MICc fold decrease) [11, 22]: 4 | INH FD (MIC-MICc fold decrease) ([11]; ITR:INH combination): 8 | FICI ([11]; KET:INH combination): 0.16 | INH MICc [11, 23]: 8 | KET FD (MIC-MICc fold decrease) [11, 24]: 32 | INH FD (MIC-MICc fold decrease) ([11]; KET:INH combination): 8 | MFC (Aspergillus flavus [12]): > 128 mg/L | MIC (Aspergillus flavus [12]): > 128 mg/L | FICI (Candida albicans [13]; FLC:INH combination): 1.06 | INH MICc (Candida albicans [13]; [19]): 8 | FLC FD (MIC-MICc fold decrease) (Candida albicans [13]; [20]): 1 | INH FD (MIC-MICc fold decrease) (Candida albicans [13]; FLC:INH combination): 16 | FICI (Candida albicans [13]; ITR:INH combination): 0.53 | INH MICc (Candida albicans [13]; [21]): 4 | ITR FD (MIC-MICc fold decrease) (Candida albicans [13]; [22]): 2 | INH FD (MIC-MICc fold decrease) (Candida albicans [13]; ITR:INH combination): 32 | FICI (Candida albicans [13]; KET:INH combination): 0.53 | INH MICc (Candida albicans [13]; [23]): 4 | KET FD (MIC-MICc fold decrease) (Candida albicans [13]; [24]): 2 | INH FD (MIC-MICc fold decrease) (Candida albicans [13]; KET:INH combination): 32 | MFC (Trichophyton rubrum [14]): > 128 mg/L | MIC (Trichophyton rubrum [14]): 8 mg/L (≈ 18.8 µM) | MFC (eight fungal species [15]; across eight species, read-out: Geometric mean MFC): 140 mg/L (≈ 327 µM) | MIC (eight fungal species [15]; geometric mean across eight species, read-out: GM fungal MIC): 49.4 mg/L (≈ 116 µM) | MIC (eight fungal species [15]; read-out: Geometric mean MIC): 49.4 mg/L (≈ 116 µM) | FICI (FLC:INH) (Aspergillus fumigatus [16]; [25]): 1.5 | FICI (ITR:INH) (Aspergillus fumigatus [16]; [26]): 0.26 | FICI (KET:INH) (Aspergillus fumigatus [16]; [27]): 2 | INH MICc (FLC:INH) (Aspergillus fumigatus [16]; [28]): 128 | INH MICc (ITR:INH) (Aspergillus fumigatus [16]; [29]): 1 | INH MICc (KET:INH) (Aspergillus fumigatus [16]; [30]): 128 | FLC FD (FLC:INH) (Aspergillus fumigatus [16]; [31]): 2 | ITR FD (ITR:INH) (Aspergillus fumigatus [16]; [32]): 4 | KET FD (KET:INH) (Aspergillus fumigatus [16]; [33]): 1 | INH FD (FLC:INH) (Aspergillus fumigatus [16]; [34]): 1 | INH FD (ITR:INH) (Aspergillus fumigatus [16]; [35]): 128 | INH FD (KET:INH) (Aspergillus fumigatus [16]; [36]): 1 | FICI (FLC:INH) (Trichophyton rubrum [17]; [25]): ≥4 | FICI (ITR:INH) (Trichophyton rubrum [17]; [26]): ≥4 | FICI (KET:INH) (Trichophyton rubrum [17]; [27]): ≥4 | INH MICc (FLC:INH) (Trichophyton rubrum [17]; [28]): 32 | INH MICc (ITR:INH) (Trichophyton rubrum [17]; [29]): 32 | INH MICc (KET:INH) (Trichophyton rubrum [17]; [30]): 32 | FLC FD (FLC:INH) (Trichophyton rubrum [17]; [31]): -2 | ITR FD (ITR:INH) (Trichophyton rubrum [17]; [32]): 8 | KET FD (KET:INH) (Trichophyton rubrum [17]; [33]): 4 | INH FD (FLC:INH) (Trichophyton rubrum [17]; [34]): -4 | INH FD (ITR:INH) (Trichophyton rubrum [17]; [35]): -4 | INH FD (KET:INH) (Trichophyton rubrum [17]; [36]): -4 | FICI (FLC:INH) (Aspergillus flavus [18]; [25]): 1.5 | FICI (ITR:INH) (Aspergillus flavus [18]; [26]): 0.28 | FICI (KET:INH) (Aspergillus flavus [18]; [27]): 0.27 | INH MICc (FLC:INH) (Aspergillus flavus [18]; [28]): 128 | INH MICc (ITR:INH) (Aspergillus flavus [18]; [29]): 8 | INH MICc (KET:INH) (Aspergillus flavus [18]; [30]): 4 | FLC FD (FLC:INH) (Aspergillus flavus [18]; [31]): 1 | ITR FD (ITR:INH) (Aspergillus flavus [18]; [32]): 4 | KET FD (KET:INH) (Aspergillus flavus [18]; [33]): 4 | INH FD (FLC:INH) (Aspergillus flavus [18]; [34]): 2 | INH FD (ITR:INH) (Aspergillus flavus [18]; [35]): 32 | INH FD (KET:INH) (Aspergillus flavus [18]; [36]): 64
